The target in the test is T1, TNF-α (Homo sapiens, UniProt P01375).
T1 construct: purchased R&D 210-TA-020/CF
Put plainly: TNF-α Induced HEK Blue Cellular Assay (secreted alkaline phosphatase expression, QUANTI-Blue). The conditions noted are these: HEK Blue TNFα reporter cells, TNF-α 100 μg/ml, 24 hrs at 37° C., inhibition of secreted alkaline phosphatase. The test is classed as cell-based. In short, it runs like this: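 HEK Blue TNFα reporter cells (10,000/well) in DMEM with 10% FBS received compound ([…] to 0.5 nM final) and TNF-α at […] final for 24 h at 37° C. Secreted alkaline phosphatase read with QUANTI-Blue at 620 nm. IC50 came from a 4-parameter logistic fit after normalising to unstimulated and stimulated DMSO controls.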

In patent publication US20260365682A1, “MODULATORS OF TNF-ALPHA ACTIVITY” (Forward Therapeutics, Inc., priority 2022, published 2026) one finds IC50 data, which are given here for 22 molecules.

Read-outs that look alike come from different tables or passages of the source. A value given as a limit tells only on which side of the number the result lay.

T1 sequence (P01375 77-233 limits assumed): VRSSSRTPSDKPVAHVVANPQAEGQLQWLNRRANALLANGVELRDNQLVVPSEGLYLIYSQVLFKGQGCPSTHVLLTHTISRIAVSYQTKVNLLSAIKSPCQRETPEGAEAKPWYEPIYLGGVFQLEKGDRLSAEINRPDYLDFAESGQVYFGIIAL

Turning to `[2H]C([2H])([2H])N1C(=O)c2cccc(OC(F)F)c2[C@H]2C[C@@H]1c1nc3ccc(C#CC(O)CC(F)(F)F)cc3n12` (stereo partly drawn) [Example 219, (7R,14R)-1-(difluoromethoxy)-6-(methyl-d3)-11-(5,5,5-trifluoro-3-hydroxypent-1-yn-1-yl)-6,7-dihydro-7,14-methanobenzo[f]benzo[4,5]imidazo[1,2-a][1,4]diazocin-5(14H)-one], the half-inhibitory concentration (IC50) (read-out: IC50 value) is < 0.1 µM.
On to `[2H]C([2H])([2H])N1C(=O)c2cccc(OC(F)F)c2[C@H]2C[C@@H]1c1nc3ccc(C#CCCN4CC[C@H](F)C4)cc3n12` [Example 220, (7R,14R)-1-(difluoromethoxy)-11-(4-((S)-3-fluoropyrrolidin-1-yl)but-1-yn-1-yl)-6-(methyl-d3)-6,7-dihydro-7,14-methanobenzo[f]benzo[4,5]imidazo[1,2-a][1,4]diazocin-5(14H)-one], for which, under “read-out: IC50 value”, the IC50 is < 0.1 µM.
Consider `[2H]C([2H])([2H])N1C(=O)c2cccc(OC(F)F)c2[C@H]2C[C@@H]1c1nc3ccc(C#CC4CN(C5CC5)C4)cc3n12` [Example 223, (7R,14R)-11-((1-cyclopropylazetidin-3-yl)ethynyl)-1-(difluoromethoxy)-6-(methyl-d3)-6,7-dihydro-7,14-methanobenzo[f]benzo[4,5]imidazo[1,2-a][1,4]diazocin-5(14H)-one], for which the half-maximal inhibitory concentration (IC50) (read-out: IC50 value) fell in the range of 0.1 to 1 µM.
`[2H]C([2H])([2H])N1C(=O)c2cccc(OC(F)F)c2[C@H]2C[C@@H]1c1nc3ccc(C#CC4CN(C5COC5)C4)cc3n12` [Example 224, (7R,14R)-1-(difluoromethoxy)-6-(methyl-d3)-11-((1-(oxetan-3-yl)azetidin-3-yl)ethynyl)-6,7-dihydro-7,14-methanobenzo[f]benzo[4,5]imidazo[1,2-a][1,4]diazocin-5(14H)-one]: the IC50 (read-out: IC50 value) is < 0.1 µM.
As to `[2H]C([2H])([2H])N1C(=O)c2cccc(OC(F)F)c2[C@H]2C[C@@H]1c1nc3ccc(C#CC4(C)CCCN(C(C)=O)C4)cc3n12` (stereo partly drawn) [Example 225, (7R,14R)-11-((1-acetyl-3-methylpiperidin-3-yl)ethynyl)-1-(difluoromethoxy)-6-(methyl-d3)-6,7-dihydro-7,14-methanobenzo[f]benzo[4,5]imidazo[1,2-a][1,4]diazocin-5(14H)-one], the 50% inhibitory concentration (IC50) (read-out: IC50 value) was < 0.1 µM.
Still for that read-out and setting: for `[2H]C([2H])([2H])N1C(=O)c2cccc(OC(F)F)c2[C@H]2C[C@@H]1c1nc3ccc(C#CCCN4CCC(F)(F)C4)cc3n12` [Example 226, (7R,14R)-1-(difluoromethoxy)-11-(4-(3,3-difluoropyrrolidin-1-yl)but-1-yn-1-yl)-6-(methyl-d3)-6,7-dihydro-7,14-methanobenzo[f]benzo[4,5]imidazo[1,2-a][1,4]diazocin-5(14H)-one] the value was < 0.1 µM.
`[2H]C([2H])([2H])N1C(=O)c2cccc(OC(F)F)c2[C@H]2C[C@@H]1c1nc3ccc(C#CCCN4CC[C@@H](F)C4)cc3n12` [Example 227, (7R,14R)-1-(difluoromethoxy)-11-(4-((R)-3-fluoropyrrolidin-1-yl)but-1-yn-1-yl)-6-(methyl-d3)-6,7-dihydro-7,14-methanobenzo[f]benzo[4,5]imidazo[1,2-a][1,4]diazocin-5(14H)-one]: the IC50 (read-out: IC50 value) was < 0.1 µM.
The same measure, in the same setting: for `[2H]C([2H])([2H])N1C(=O)c2cccc(OC(F)F)c2[C@H]2C[C@@H]1c1nc3ccc(C#CCCN4CC(F)C4)cc3n12` [Example 228, (7R,14R)-1-(difluoromethoxy)-11-(4-(3-fluoroazetidin-1-yl)but-1-yn-1-yl)-6-(methyl-d3)-6,7-dihydro-7,14-methanobenzo[f]benzo[4,5]imidazo[1,2-a][1,4]diazocin-5(14H)-one] the value was < 0.1 µM.
As for `[2H]C([2H])([2H])N1C(=O)c2cccc(OC(F)F)c2[C@H]2C[C@@H]1c1nc3ccc(C#CCN4CCOCC4)cc3n12` [Example 229, (7R,14R)-1-(difluoromethoxy)-6-(methyl-d3)-11-(3-morpholinoprop-1-yn-1-yl)-6,7-dihydro-7,14-methanobenzo[f]benzo[4,5]imidazo[1,2-a][1,4]diazocin-5(14H)-one], the IC50 (read-out: IC50 value) was 0.1 to 1 µM.
Regarding `[2H]C([2H])([2H])N1C(=O)c2cccc(OC(F)F)c2[C@H]2C[C@@H]1c1nc3ccc(C#CCN4CCC(F)(F)C4)cc3n12` [Example 230, (7R,14R)-1-(difluoromethoxy)-11-(3-(3,3-difluoropyrrolidin-1-yl)prop-1-yn-1-yl)-6-(methyl-d3)-6,7-dihydro-7,14-methanobenzo[f]benzo[4,5]imidazo[1,2-a][1,4]diazocin-5(14H)-one], for the setting “read-out: IC50 value”, the IC50 is < 0.1 µM.
Take `[2H]C([2H])([2H])N1C(=O)c2cccc(OC(F)F)c2[C@H]2C[C@@H]1c1nc3ccc(C#CCN4CC(F)(F)C4)cc3n12` [Example 231, (7R,14R)-11-(3-(3,3-difluoroazetidin-1-yl)prop-1-yn-1-yl)-1-(difluoromethoxy)-6-(methyl-d3)-6,7-dihydro-7,14-methanobenzo[f]benzo[4,5]imidazo[1,2-a][1,4]diazocin-5(14H)-one]: the IC50 (read-out: IC50 value) is < 0.1 µM.
With `[2H]C([2H])([2H])N1C(=O)c2cccc(OC(F)F)c2[C@H]2C[C@@H]1c1nc3ccc(C#CCN4CC(F)C4)cc3n12` [Example 232, (7R,14R)-1-(difluoromethoxy)-11-(3-(3-fluoroazetidin-1-yl)prop-1-yn-1-yl)-6-(methyl-d3)-6,7-dihydro-7,14-methanobenzo[f]benzo[4,5]imidazo[1,2-a][1,4]diazocin-5(14H)-one], the IC50 (read-out: IC50 value) lay in the range of 0.1 to 1 µM.
`[2H]C([2H])([2H])N1C(=O)c2cccc(OC(F)F)c2[C@H]2C[C@@H]1c1nc3ccc(C#CCCN4CC(F)(F)C4)cc3n12` [Example 233, (7R,14R)-11-(4-(3,3-difluoroazetidin-1-yl)but-1-yn-1-yl)-1-(difluoromethoxy)-6-(methyl-d3)-6,7-dihydro-7,14-methanobenzo[f]benzo[4,5]imidazo[1,2-a][1,4]diazocin-5(14H)-one]: the IC50 (read-out: IC50 value) is < 0.1 µM.
Still for that read-out and setting: for `[2H]C([2H])([2H])N1C(=O)c2cccc(OC(F)F)c2[C@H]2C[C@@H]1c1nc3ccc(C#CC4CCN(C5CC5)C4)cc3n12` (stereo partly drawn) [Example 234, (7R,14R)-11-((1-cyclopropylpyrrolidin-3-yl)ethynyl)-1-(difluoromethoxy)-6-(methyl-d3)-6,7-dihydro-7,14-methanobenzo[f]benzo[4,5]imidazo[1,2-a][1,4]diazocin-5(14H)-one] the value was < 0.1 µM; for `[2H]C([2H])([2H])N1C(=O)c2cccc(OC(F)F)c2[C@H]2C[C@@H]1c1nc3ccc(C#CCN4CC[C@H](F)C4)cc3n12` [Example 235, (7R,14R)-1-(difluoromethoxy)-11-(3-((S)-3-fluoropyrrolidin-1-yl)prop-1-yn-1-yl)-6-(methyl-d3)-6,7-dihydro-7,14-methanobenzo[f]benzo[4,5]imidazo[1,2-a][1,4]diazocin-5(14H)-one], < 0.1 µM; for `[2H]C([2H])([2H])N1C(=O)c2cccc(OC(F)F)c2[C@H]2C[C@@H]1c1nc3ccc(C#CCN4CC[C@@H](F)C4)cc3n12` [Example 236, (7R,14R)-1-(difluoromethoxy)-11-(3-((R)-3-fluoropyrrolidin-1-yl)prop-1-yn-1-yl)-6-(methyl-d3)-6,7-dihydro-7,14-methanobenzo[f]benzo[4,5]imidazo[1,2-a][1,4]diazocin-5(14H)-one], < 0.1 µM.
For `[2H]C([2H])([2H])N1C(=O)c2cccc(OC(F)F)c2[C@H]2C[C@@H]1c1nc3ccc(C#CC4CCN(C5COC5)C4)cc3n12` (stereo partly drawn) [Example 237, (7R,14R)-1-(difluoromethoxy)-6-(methyl-d3)-11-((1-(oxetan-3-yl)pyrrolidin-3-yl)ethynyl)-6,7-dihydro-7,14-methanobenzo[f]benzo[4,5]imidazo[1,2-a][1,4]diazocin-5(14H)-one], the IC50 (read-out: IC50 value) is < 0.1 µM.
For `[2H]C([2H])([2H])N1C(=O)c2cccc(OC(F)F)c2[C@H]2C[C@@H]1c1nc3ccc(C#CC4CN(C(C)C(F)F)C4)cc3n12` (stereo partly drawn) [Example 238, (7R,14R)-1-(difluoromethoxy)-11-((1-(1,1-difluoropropan-2-yl)azetidin-3-yl)ethynyl)-6-(methyl-d3)-6,7-dihydro-7,14-methanobenzo[f]benzo[4,5]imidazo[1,2-a][1,4]diazocin-5(14H)-one], the IC50 (read-out: IC50 value) was < 0.1 µM.
Turning to `[2H]C([2H])([2H])N1C(=O)c2cccc(OC(F)F)c2[C@H]2C[C@@H]1c1nc3ccc(C#CCNC4CC4)cc3n12` [Example 241, (7R,14R)-11-(3-(cyclopropylamino)prop-1-yn-1-yl)-1-(difluoromethoxy)-6-(methyl-d3)-6,7-dihydro-7,14-methanobenzo[f]benzo[4,5]imidazo[1,2-a][1,4]diazocin-5(14H)-one], the IC50 (IC50 value) was < 0.1 µM.
On to `[2H]C([2H])([2H])N1C(=O)c2cccc(OC(F)F)c2[C@H]2C[C@@H]1c1nc3ccc(C#CCNC4COC4)cc3n12` [Example 242, (7R,14R)-1-(difluoromethoxy)-6-(methyl-d3)-11-(3-(oxetan-3-ylamino)prop-1-yn-1-yl)-6,7-dihydro-7,14-methanobenzo[f]benzo[4,5]imidazo[1,2-a][1,4]diazocin-5(14H)-one], for which the IC50 (IC50 value) was < 0.1 µM.
As for `[2H]C([2H])([2H])N1C(=O)c2cccc(OC(F)F)c2[C@H]2C[C@@H]1c1nc3ccc(C#CC(F)F)cc3n12` [Example 247, (7R,14R)-1-(difluoromethoxy)-11-(3,3-difluoroprop-1-yn-1-yl)-6-(methyl-d3)-6,7-dihydro-7,14-methanobenzo[f]benzo[4,5]imidazo[1,2-a][1,4]diazocin-5(14H)-one], where the note is “read-out: IC50 value”, the IC50 was < 0.1 µM.
As for `[2H]C([2H])([2H])N1C(=O)c2cccc(OC(F)F)c2[C@H]2C[C@@H]1c1nc3ccc(C#CC(C)CN4CC(F)C4)cc3n12` (stereo partly drawn) [Example 248, (7R,14R)-1-(difluoromethoxy)-11-(4-(3-fluoroazetidin-1-yl)-3-methylbut-1-yn-1-yl)-6-(methyl-d3)-6,7-dihydro-7,14-methanobenzo[f]benzo[4,5]imidazo[1,2-a][1,4]diazocin-5(14H)-one], the concentration for half-maximal inhibition (IC50) (read-out: IC50 value) lay within 0.1 to 1 µM.
